Tests used:
aFap7–aRps14 complex [1] = biological target: T1, aFap7–aRps14 complex (Pyrococcus abyssi, UniProt Q9UZK4); experiment: X-ray crystal structure, […] Å; conditions: Mg2+; ATP binding pocket of aFap7; pH 8.5, 18 °C
T1 construct: gene PYRAB11420; co-expressed from polycistronic pET21, N-terminal 6xHis on Fap7, E. coli Rosetta 2DE3; 1:1 complex, calculated mass 36,272; with Small ribosomal subunit protein uS11 (30S ribosomal protein S11)

yFap7 [2] = biological target: T2, yFap7 (Saccharomyces cerevisiae, UniProt Q12055); experiment: native gel electrophoresis with radiolabelled ATP; format: binding; conditions: 30 µM yFap7, 0.1 mM [γ-32P]ATP, AMP-PNP 0.1 or 1 mM
T2 construct: gene FAP7; full-length, His-tagged, pRSF-DUET, expressed in E. coli Rosetta 2DE3; calculated monomer mass 23,916 (SAXS sample)
T2 sequence (Q12055 1-197): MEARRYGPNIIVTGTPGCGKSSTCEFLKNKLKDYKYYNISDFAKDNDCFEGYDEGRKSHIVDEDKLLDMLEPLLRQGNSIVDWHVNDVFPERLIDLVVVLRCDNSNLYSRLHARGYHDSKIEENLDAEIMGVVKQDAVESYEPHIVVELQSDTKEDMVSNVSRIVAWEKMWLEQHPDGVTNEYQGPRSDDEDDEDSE

yFap7 [3] = biological target: T2, yFap7; experiment: adenylate kinase assay coupled to pyruvate kinase / lactate dehydrogenase, NADH at […] nm; format: biochemical; conditions: 5 mM MgCl2, pH 7.5, 30 °C; co-substrate ATP
yFap7–yRps14 complex = biological target: T3, yFap7–yRps14 complex (Saccharomyces cerevisiae, UniProt Q12055); experiment: as above; format: biochemical; conditions: 0.3 mM AMP, 5 mM MgCl2, pH 7.5, 30 °C; preformed complex
T3 construct: gene FAP7; co-expressed from polycistronic pET21, N-terminal 6xHis on Fap7, E. coli Rosetta 2DE3; 1:1 complex, calculated mass 38,447; with Small ribosomal subunit protein uS11 (40S ribosomal protein S14)

aFap7–aRps14 complex [4] = biological target: T1, aFap7–aRps14 complex; experiment: X-ray crystal structure, […] Å; conditions: Mg2+; ATP binding pocket of aFap7; pH 8.5, 18 °C; two of four aFap7 copies hold ATP, two ADP
MBP-yRps14 [5] = biological target: T4, MBP-yRps14 (Saccharomyces cerevisiae, UniProt P06367 1-137); experiment: filter binding; 300 mM KCl, 5 mM Mg2+, HEPES pH 8.0; Filter binding: 30 mM Tris-HCl pH 8.0, 150 mM KCl, 6 mM MgCl2, 60 ug/ml E. coli tRNA, 20 C, 15 min, 10 fmol RNA (Fig S4D: 20 mM HEPES pH 8.0, 300 mM KCl, 5 mM MgCl2, 20 C); pull-down: IP buffer (300 mM KCl, 50 mM Hepes pH 7.5, 0.5 mM EDTA, 1 mM DTT, 10% glycerol as given for bead preparation), 5 mM MgCl2 where stated; conditions: protein: recombinant; tags: MBP (pETM41; His-tag purification); (radioactively labeled); hairpin
yFap7 [6] = biological target: T5, yFap7 (Saccharomyces cerevisiae, UniProt Q12055 1-197); experiment: filter binding; up to 3.6 uM protein; 6 mM Mg2+, 150 mM KCl; Filter binding: 30 mM Tris-HCl pH 8.0, 150 mM KCl, 6 mM MgCl2, 60 ug/ml E. coli tRNA, 20 C, 15 min, 10 fmol RNA (Fig S4D: 20 mM HEPES pH 8.0, 300 mM KCl, 5 mM MgCl2, 20 C); pull-down: IP buffer (300 mM KCl, 50 mM Hepes pH 7.5, 0.5 mM EDTA, 1 mM DTT, 10% glycerol as given for bead preparation), 5 mM MgCl2 where stated; conditions: protein: recombinant; tags: His; (radioactively labeled); hairpin
T5 sequence: T2 sequence (Q12055 1-197)

MBP-yRps14 [7] = biological target: T4, MBP-yRps14; experiment: filter binding; 6 mM Mg2+, 150 mM KCl, E. coli tRNA 60 ug/ml; Filter binding: 30 mM Tris-HCl pH 8.0, 150 mM KCl, 6 mM MgCl2, 60 ug/ml E. coli tRNA, 20 C, 15 min, 10 fmol RNA (Fig S4D: 20 mM HEPES pH 8.0, 300 mM KCl, 5 mM MgCl2, 20 C); pull-down: IP buffer (300 mM KCl, 50 mM Hepes pH 7.5, 0.5 mM EDTA, 1 mM DTT, 10% glycerol as given for bead preparation), 5 mM MgCl2 where stated; conditions: protein: recombinant; tags: MBP (pETM41; His-tag purification); (radioactively labeled); hairpin
purified protein = substrate: Nc1ncnc2c1ncn2[C@@H]1O[C@H](COP(=O)(O)OP(=O)(O)OP(=O)(O)O)[C@@H](O)[C@H]1O; experiment: purified protein; format: biochemical, Saccharomyces cerevisiae; conditions: 0.3 mM AMP, 5 mM MgCl2, 60 mM KCl, 100 mM Tris-HCl pH 7.5, 30 °C, ATP 0.01–1 mM

## Nc1ncnc2c1ncn2[C@@H]1O[C@H](COP(=O)(O)OP(=O)(O)O)[C@@H](O)[C@H]1O [ADP]
aFap7–aRps14 complex [1]
  X-ray crystal structure, 2.12 Å: 4cwn and 4cw7 for the ADP- and ATP-bound structures

## Nc1ncnc2c1ncn2[C@@H]1O[C@H](COP(=O)(O)OP(=O)(O)NP(=O)(O)O)[C@@H](O)[C@H]1O [AMPPNP]
yFap7 [2]
  native gel electrophoresis with radiolabelled ATP: Fap7 binds AMPPNP and ATP−Mg with the same (AMPPNP) or a slightly lower

## Nc1ncnc2c1ncn2[C@@H]1O[C@H](COP(=O)(O)O)[C@@H](O)[C@H]1O [AMP]
yFap7 [3]
  adenylate kinase assay coupled to pyruvate kinase / lactate dehydrogenase, NADH: the AK activity of yFap7 with respect to AMP

## Nc1ncnc2c1ncn2[C@@H]1O[C@H](COP(=O)(O)OP(=O)(O)OP(=O)(O)O)[C@@H](O)[C@H]1O [ATP]
yFap7–yRps14 complex
  adenylate kinase assay coupled to pyruvate kinase / lactate dehydrogenase, NADH: yFap7–yRps14 complex showed almost complete inhibition of the Fap7 AK activity
aFap7–aRps14 complex [4]
  X-ray crystal structure, 2.45 Å: In the ATP-bound crystal form, two copies of aFap7 are bound by ATP

## GGGAGUAUUCAAUUGUCAGAGGUGAAAUUCUUGGAUUUAUUGAAGAGU (structured_RNA) [Helix 23 of 18S rRNA (H23)]
MBP-yRps14 [5]
  Kd: 34.9 ± 0.95 µM
yFap7 [6]
  binding result: no binding
MBP-yRps14 [7]
  Kd: 1.5 ± 0.15 µM

B1: yFap7 (Saccharomyces cerevisiae S288C) (protein)
chain: T2 sequence (Q12055 1-197)
notes: full-length, His-tagged, pRSF-DUET, expressed in E. coli Rosetta 2DE3; calculated monomer mass 23,916 (SAXS sample)
Purified protein
  Km: 52 µM
  kcat: 0.00612 s⁻¹

— article PMC4019466, “RNA Mimicry by the Fap7 Adenylate Kinase in Ribosome Biogenesis” (PLoS Biology, 2014)
